Legend:
Format in all cases: in vivo
[1] = tested on: Echinochloa crus-galli (L.) P. Beauv. var. formosensis Ohwi; assay: Test for Herbicidal Effect in Flooding Treatment (#1), ECHDG; conditions: flooding treatment at seeding, dose 2 kg/ha, visual observation on day 21
Method in brief: (§1)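 Visual scores from 0 (<10% inhibition) to 5 (≥90% or complete withering) were taken 21 days after treatment of glasshouse-grown plants. Seeds were sown in soil flooded for 24 h beforehand, and compound was applied dropwise onto the surface at 2 kg/ha as an acetone solution diluted in water with Tween 80.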

[2] = tested on: Scirpus juncoides; assay: Test for Herbicidal Effect in Flooding Treatment (#1), SCIJU; conditions: flooding treatment at seeding, dose 2 kg/ha, visual observation on day 21
Method in brief: as §1

[3] = tested on: Cyperus microiria; assay: Test for Herbicidal Effect in Flooding Treatment (#1), CYMIC; conditions: flooding treatment at seeding, dose 2 kg/ha, visual observation on day 21
Description: (#1) Test for Herbicidal Effect in Flooding Treatment: Styrol cups each having an opening diameter of 8 cm (about 52 cm^2) were respectively filled with soil (45 ml) which had been passed through a sieve (2 mm). Water (about 115 ml) was mixed with the soil such that the soil was flooded. After the soil stood still for 24 hours, Monochoria vaginalis, Echinochloa crus-galli (L.) P. Beauv. var. formosensis Ohwi, Cyperus difformis (umbrella sedge), and Scirpus juncoides were seeded. Each of the compounds of the present invention was dissolved in acetone, and the obtained product was then diluted with water containing Tween 80®. Each of the resultant chemical solutions was dropped on the entire surface of an associated one of treatment sections, so that each section was treated with 1 ml of the respective chemical solution (a dose of 2 kg/ha). After the treatment, the plants were grown in a glasshouse. On day 21, a survey was conducted on the herbicidal activity by visual observation, and evaluation was made according to the following criteria. 0: Growth inhibition effect is less than 10%. 1: Growth inhibition effect is equal to or greater than 10%, and less than 30%. 2; Growth inhibition effect is equal to or greater than 30%, and less than 50%. 3: Growth inhibition effect equal to or greater than 50%, and less than 70%. 4: Growth inhibition effect is equal to or greater than 70%, and less than 90%. 5: Growth inhibition effect is equal to or greater than 90%, or complete withering is achieved. ECHDG=Echinochloa crus-galli (L.) P. Beauv. var. formosensis Ohwi, MONVA=Monochoria vaginalis, SCIJU=Scirpus juncoides, CYMIC=Cyperus microiria.

[4] = tested on: Echinochloa crus-galli (L.) P. Beauv. var. formosensis Ohwi; assay: Test for Herbicidal Effect in Flooding Treatment (#2), ECHDG at 2-2.5 leaf stage; conditions: for ECHDG (2-2.5L) #2 herbicidal effect (growth inhibition grade): flooding treatment at 2-2.5 leaf stage, dose 0.2 kg/ha, visual observation on day 21; for inhibition at 200 g/ha: Echinochloa crus-galli, 504 h, flooding treatment (#2), ECHDG at 2-2.5 leaf stage, dose of 0.2 kg/ha, day 21, visual observation, read-out: growth inhibition effect
Method in brief: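 Scoring is a visual 0–5 scale of growth inhibition (0 below 10%, 5 at 90% or more or full withering), taken 21 days after treatment in a glasshouse. Dose was 0.2 kg/ha, applied as acetone/Tween 80 aqueous solution onto flooded soil once seedlings reached the 2–2.5 leaf stage.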

COc1cc(F)ccc1CS(=O)(=O)c1ncc(Cl)s1 [Compound 1C-3]
ECHDG #1 herbicidal effect (growth inhibition grade) [1]: 5 (Growth inhibition effect is equal to or greater than 90%, or complete withering is achieved)
SCIJU #1 herbicidal effect (growth inhibition grade) [2]: 5 (Growth inhibition effect is equal to or greater than 90%, or complete withering is achieved)
CYMIC #1 herbicidal effect (growth inhibition grade) [3]: 5 (Growth inhibition effect is equal to or greater than 90%, or complete withering is achieved)
ECHDG (2-2.5L) #2 herbicidal effect (growth inhibition grade) [4]: 4 (Growth inhibition effect is equal to or greater than 70%, and less than 90%)

COc1cc(Cl)ccc1CS(=O)(=O)c1ncc(Cl)s1 [Compound 1C-4]
ECHDG #1 herbicidal effect (growth inhibition grade) [1]: 5 (Growth inhibition effect is equal to or greater than 90%, or complete withering is achieved)
SCIJU #1 herbicidal effect (growth inhibition grade) [2]: 5 (Growth inhibition effect is equal to or greater than 90%, or complete withering is achieved)
CYMIC #1 herbicidal effect (growth inhibition grade) [3]: 5 (Growth inhibition effect is equal to or greater than 90%, or complete withering is achieved)
ECHDG (2-2.5L) #2 herbicidal effect (growth inhibition grade) [4]: 5 (Growth inhibition effect is equal to or greater than 90%, or complete withering is achieved)

CCOc1c(Cl)cccc1CS(=O)(=O)c1ncc(Cl)s1 [Compound 1C-10]
ECHDG #1 herbicidal effect (growth inhibition grade) [1]: 5 (Growth inhibition effect is equal to or greater than 90%, or complete withering is achieved)
SCIJU #1 herbicidal effect (growth inhibition grade) [2]: 5 (Growth inhibition effect is equal to or greater than 90%, or complete withering is achieved)
CYMIC #1 herbicidal effect (growth inhibition grade) [3]: 5 (Growth inhibition effect is equal to or greater than 90%, or complete withering is achieved)
ECHDG (2-2.5L) #2 herbicidal effect (growth inhibition grade) [4]: 5 (Growth inhibition effect is equal to or greater than 90%, or complete withering is achieved)

CCOc1cc(F)ccc1CS(=O)(=O)c1ncc(Cl)s1 [Compound 1C-12]
ECHDG #1 herbicidal effect (growth inhibition grade) [1]: 5 (Growth inhibition effect is equal to or greater than 90%, or complete withering is achieved)
SCIJU #1 herbicidal effect (growth inhibition grade) [2]: 5 (Growth inhibition effect is equal to or greater than 90%, or complete withering is achieved)
CYMIC #1 herbicidal effect (growth inhibition grade) [3]: 5 (Growth inhibition effect is equal to or greater than 90%, or complete withering is achieved)
ECHDG (2-2.5L) #2 herbicidal effect (growth inhibition grade) [4]: 4 (Growth inhibition effect is equal to or greater than 70%, and less than 90%)

CCOc1cc(C)ccc1CS(=O)(=O)c1ncc(Cl)s1 [Compound 1C-13]
ECHDG #1 herbicidal effect (growth inhibition grade) [1]: 5 (Growth inhibition effect is equal to or greater than 90%, or complete withering is achieved)
SCIJU #1 herbicidal effect (growth inhibition grade) [2]: 5 (Growth inhibition effect is equal to or greater than 90%, or complete withering is achieved)
CYMIC #1 herbicidal effect (growth inhibition grade) [3]: 5 (Growth inhibition effect is equal to or greater than 90%, or complete withering is achieved)
ECHDG (2-2.5L) #2 herbicidal effect (growth inhibition grade) [4]: 5 (Growth inhibition effect is equal to or greater than 90%, or complete withering is achieved)

CCOc1cc(C(F)(F)F)ccc1CS(=O)(=O)c1ncc(Cl)s1 [Compound 1C-14]
ECHDG #1 herbicidal effect (growth inhibition grade) [1]: 5 (Growth inhibition effect is equal to or greater than 90%, or complete withering is achieved)
SCIJU #1 herbicidal effect (growth inhibition grade) [2]: 5 (Growth inhibition effect is equal to or greater than 90%, or complete withering is achieved)
CYMIC #1 herbicidal effect (growth inhibition grade) [3]: 5 (Growth inhibition effect is equal to or greater than 90%, or complete withering is achieved)
ECHDG (2-2.5L) #2 herbicidal effect (growth inhibition grade) [4]: 4 (Growth inhibition effect is equal to or greater than 70%, and less than 90%)

CCOc1ccc(Cl)cc1CS(=O)(=O)c1ncc(Cl)s1 [Compound 1C-16]
ECHDG #1 herbicidal effect (growth inhibition grade) [1]: 5 (Growth inhibition effect is equal to or greater than 90%, or complete withering is achieved)
SCIJU #1 herbicidal effect (growth inhibition grade) [2]: 5 (Growth inhibition effect is equal to or greater than 90%, or complete withering is achieved)
CYMIC #1 herbicidal effect (growth inhibition grade) [3]: 5 (Growth inhibition effect is equal to or greater than 90%, or complete withering is achieved)
inhibition at 200 g/ha [4]: ≥ 90%
ECHDG (2-2.5L) #2 herbicidal effect (growth inhibition grade) [4]: 5 (Growth inhibition effect is equal to or greater than 90%, or complete withering is achieved)

CCOc1ccc(Br)cc1CS(=O)(=O)c1ncc(Cl)s1 [Compound 1C-17]
ECHDG #1 herbicidal effect (growth inhibition grade) [1]: 5 (Growth inhibition effect is equal to or greater than 90%, or complete withering is achieved)
SCIJU #1 herbicidal effect (growth inhibition grade) [2]: 5 (Growth inhibition effect is equal to or greater than 90%, or complete withering is achieved)
CYMIC #1 herbicidal effect (growth inhibition grade) [3]: 5 (Growth inhibition effect is equal to or greater than 90%, or complete withering is achieved)
ECHDG (2-2.5L) #2 herbicidal effect (growth inhibition grade) [4]: 5 (Growth inhibition effect is equal to or greater than 90%, or complete withering is achieved)

CCOc1ccc(C)cc1CS(=O)(=O)c1ncc(Cl)s1 [Compound 1C-18]
ECHDG #1 herbicidal effect (growth inhibition grade) [1]: 5 (Growth inhibition effect is equal to or greater than 90%, or complete withering is achieved)
SCIJU #1 herbicidal effect (growth inhibition grade) [2]: 5 (Growth inhibition effect is equal to or greater than 90%, or complete withering is achieved)
CYMIC #1 herbicidal effect (growth inhibition grade) [3]: 5 (Growth inhibition effect is equal to or greater than 90%, or complete withering is achieved)
ECHDG (2-2.5L) #2 herbicidal effect (growth inhibition grade) [4]: 5 (Growth inhibition effect is equal to or greater than 90%, or complete withering is achieved)

CCOc1cccc(Cl)c1CS(=O)(=O)c1ncc(Cl)s1 [Compound 1C-20]
ECHDG #1 herbicidal effect (growth inhibition grade) [1]: 5 (Growth inhibition effect is equal to or greater than 90%, or complete withering is achieved)
SCIJU #1 herbicidal effect (growth inhibition grade) [2]: 5 (Growth inhibition effect is equal to or greater than 90%, or complete withering is achieved)
CYMIC #1 herbicidal effect (growth inhibition grade) [3]: 5 (Growth inhibition effect is equal to or greater than 90%, or complete withering is achieved)
inhibition at 200 g/ha [4]: ≥ 90%
ECHDG (2-2.5L) #2 herbicidal effect (growth inhibition grade) [4]: 5 (Growth inhibition effect is equal to or greater than 90%, or complete withering is achieved)

CCOc1c(Br)cc(Cl)cc1CS(=O)(=O)c1ncc(Cl)s1 [Compound 1C-24]
ECHDG #1 herbicidal effect (growth inhibition grade) [1]: 5 (Growth inhibition effect is equal to or greater than 90%, or complete withering is achieved)
SCIJU #1 herbicidal effect (growth inhibition grade) [2]: 5 (Growth inhibition effect is equal to or greater than 90%, or complete withering is achieved)
CYMIC #1 herbicidal effect (growth inhibition grade) [3]: 5 (Growth inhibition effect is equal to or greater than 90%, or complete withering is achieved)
ECHDG (2-2.5L) #2 herbicidal effect (growth inhibition grade) [4]: 5 (Growth inhibition effect is equal to or greater than 90%, or complete withering is achieved)

CCOc1c(Cl)cc(Cl)c(Cl)c1CS(=O)(=O)c1ncc(Cl)s1 [Compound 1C-34]
ECHDG #1 herbicidal effect (growth inhibition grade) [1]: 5 (Growth inhibition effect is equal to or greater than 90%, or complete withering is achieved)
SCIJU #1 herbicidal effect (growth inhibition grade) [2]: 5 (Growth inhibition effect is equal to or greater than 90%, or complete withering is achieved)
CYMIC #1 herbicidal effect (growth inhibition grade) [3]: 5 (Growth inhibition effect is equal to or greater than 90%, or complete withering is achieved)
ECHDG (2-2.5L) #2 herbicidal effect (growth inhibition grade) [4]: 4 (Growth inhibition effect is equal to or greater than 70%, and less than 90%)

O=S(=O)(Cc1ccccc1OC(F)(F)F)c1ncc(Cl)s1 [Compound 1C-46]
ECHDG #1 herbicidal effect (growth inhibition grade) [1]: 5 (Growth inhibition effect is equal to or greater than 90%, or complete withering is achieved)
SCIJU #1 herbicidal effect (growth inhibition grade) [2]: 5 (Growth inhibition effect is equal to or greater than 90%, or complete withering is achieved)
CYMIC #1 herbicidal effect (growth inhibition grade) [3]: 5 (Growth inhibition effect is equal to or greater than 90%, or complete withering is achieved)
ECHDG (2-2.5L) #2 herbicidal effect (growth inhibition grade) [4]: 5 (Growth inhibition effect is equal to or greater than 90%, or complete withering is achieved)

COc1cccc(CS(=O)(=O)c2ncc(Cl)s2)c1C [Compound 1C-67]
ECHDG #1 herbicidal effect (growth inhibition grade) [1]: 5 (Growth inhibition effect is equal to or greater than 90%, or complete withering is achieved)
SCIJU #1 herbicidal effect (growth inhibition grade) [2]: 5 (Growth inhibition effect is equal to or greater than 90%, or complete withering is achieved)
CYMIC #1 herbicidal effect (growth inhibition grade) [3]: 5 (Growth inhibition effect is equal to or greater than 90%, or complete withering is achieved)
ECHDG (2-2.5L) #2 herbicidal effect (growth inhibition grade) [4]: 5 (Growth inhibition effect is equal to or greater than 90%, or complete withering is achieved)
